Test results reported in patent publication US9765075B2, “Substituted bridged urea analogs as sirtuin modulators” (GLAXOSMITHKLINE LLC, priority 2013, dated 2017).
Like-named read-outs stand apart in the source and are kept apart here.

Target: T1, SIRT1 (Homo sapiens, UniProt Q96EB6)
T1 sequence (Q96EB6 1-747): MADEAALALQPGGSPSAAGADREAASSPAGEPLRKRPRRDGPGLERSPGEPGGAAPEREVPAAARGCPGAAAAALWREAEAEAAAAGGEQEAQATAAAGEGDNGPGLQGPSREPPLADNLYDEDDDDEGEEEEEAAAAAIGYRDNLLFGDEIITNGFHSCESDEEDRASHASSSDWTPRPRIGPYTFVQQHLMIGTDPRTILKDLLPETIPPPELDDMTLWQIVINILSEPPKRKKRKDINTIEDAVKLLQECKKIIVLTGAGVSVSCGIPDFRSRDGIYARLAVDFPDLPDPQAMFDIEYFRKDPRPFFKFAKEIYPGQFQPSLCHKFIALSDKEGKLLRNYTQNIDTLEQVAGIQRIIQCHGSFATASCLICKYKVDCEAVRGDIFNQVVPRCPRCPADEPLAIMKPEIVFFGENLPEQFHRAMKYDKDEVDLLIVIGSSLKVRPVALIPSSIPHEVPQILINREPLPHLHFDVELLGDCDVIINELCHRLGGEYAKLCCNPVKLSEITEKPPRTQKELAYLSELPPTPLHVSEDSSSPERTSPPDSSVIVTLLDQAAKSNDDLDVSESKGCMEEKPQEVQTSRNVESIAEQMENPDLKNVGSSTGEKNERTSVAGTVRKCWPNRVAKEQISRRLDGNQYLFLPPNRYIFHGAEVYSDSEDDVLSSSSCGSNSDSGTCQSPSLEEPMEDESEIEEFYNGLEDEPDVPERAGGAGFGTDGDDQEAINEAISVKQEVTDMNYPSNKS
Experiment: Trp mass spectrometry assay (SIRT1 activation)
Assay type: biochemical
Details: for Emax: percent maximum fold activation of SIRT1, read-out: Tryp % Fold Act
In short: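 Activation is expressed as EC1.5, the concentration raising activity 50% above DMSO control, and as maximum percent of control. Mass-spec readout was OAADPR or deacetylated Trp peptide after a formic-acid-quenched 25-min, 25 °C reaction: 10 nM bacterially expressed His-SIRT1, 0.5 μM acetyl-p53-derived peptide, 120 μM NAD+, pH 7.5 HEPES with […].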

[1] = concentration of test compound that results in 150% activation of SIRT1, Trp peptide substrate
[2] = Trp mass spectrometry assay, EC1.5 = concentration of test compound that results in 150% activation of SIRT1
[3] = Trp mass spectrometry assay, EC1.5 = concentration giving 150% activation of SIRT1

SMILES | Tryp AVG EC1.5 (μM) [1] | Emax (Trp peptide substrate) [%] | Tryp AVG EC1.5 (μM) [2] | Emax (Trp mass spectrometry assay) [%] | Tryp AVG EC1.5 (μM) [3]
Cc1cc(-c2ccc3c(n2)N(C(=O)Nc2cncc(F)c2)[C@H]2CCN3C2)ccn1 [Example 238] | B (EC1.5 1-25 μM) | ≥ 150 |  |  | 
COc1cc(-c2cccc(C(F)(F)F)c2)nc2c1N1CC[C@@H](C1)N2C(=O)Nc1ccccn1 [Example 159] |  |  | A (EC1.5<1 μM) | ≥ 150 | 
O=C(Nc1ccccn1)N1c2nc(-c3cccc(Cl)c3)ccc2N2CC[C@H]1C2 [Example 19] |  |  |  | ≥ 150 | 
Cc1[nH]ncc1-c1ccc2c(n1)N(C(=O)Nc1cccnc1)[C@H]1CCN2C1 [Example 490] | B (EC1.5 1-25 μM) | ≥ 150 |  |  | 
O=C(Nc1ccncn1)N1c2nc(N3CCCC(C(F)(F)F)C3)ccc2N2CC[C@H]1C2 (some centres unmarked) [Example 211] |  |  | B (EC1.5 1-25 μM) | ≥ 150 | 
Cc1cc(-c2ccc3c(n2)N(C(=O)Nc2cncc(C)n2)[C@H]2CCN3C2)ccn1 [Example 503] | A (EC1.5<1 μM) | ≥ 150 |  |  | 
CC(C)(C)OC(=O)N1CCc2cc(NC(=O)N3c4nc(-c5cccc(C(F)(F)F)c5)ccc4N4CC[C@H]3C4)ccc2C1 [Example 611] | A (EC1.5<1 μM) | ≥ 150 |  |  | 
Cc1ccc(-c2ccc3c(n2)N(C(=O)Nc2cncc(F)c2)[C@H]2CCCN3C2)cn1 [Example 477] | B (EC1.5 1-25 μM) | ≥ 150 |  |  | 
O=C(Nc1cncc(F)c1)N1c2nc(N3CCCC(C(F)(F)F)C3)ccc2N2CC[C@H]1C2 (some centres unmarked) [Example 232] | B (EC1.5 1-25 μM) | ≥ 150 |  |  | 
COc1cc(NC(=O)N2c3nc(-c4ccnc(C(F)(F)F)c4)ccc3N3CC[C@H]2C3)ncn1 [Example 133] |  |  | A (EC1.5<1 μM) | ≥ 150 | 
O=C(Nc1nccs1)N1c2nc(N3CCCC(C(F)(F)F)C3)ccc2N2CCC[C@@H]1C2 (some centres unmarked) [Example 310] | B (EC1.5 1-25 μM) | ≥ 150 |  |  | 
O=C(Nc1ccccn1)N1c2nc(-c3cncc(Cl)c3)ccc2N2CCC1CC2 [Example 551] | B (EC1.5 1-25 μM) | ≥ 150 |  |  | 
O=C(Nc1cncc(F)c1)N1c2nc(-c3cccc(Cl)c3)ccc2N2C[C@@H](O)[C@H]1C2 [Example 677] |  |  |  | ≥ 150 | B (EC1.5 1-25 μM)
O=C(Nc1ccccn1)N1c2nc(-c3ccc(F)c(Cl)c3)ccc2N2CC[C@H]1C2 [Example 329] | A (EC1.5<1 μM) | ≥ 150 |  |  | 
Cc1ccc(-c2ccc3c(n2)N(C(=O)Nc2cnccn2)[C@H]2CCN3C2)cn1 [Example 236] | B (EC1.5 1-25 μM) | ≥ 150 |  |  | 
O=C(Nc1ccccn1)N1c2nc(-c3cccc(Cl)c3)ccc2N2C[C@@H](O)[C@H]1C2 [Example 675] |  |  |  | ≥ 150 | B (EC1.5 1-25 μM)
Cn1ccc(NC(=O)N2c3nc(-c4cccc(C#N)c4)ccc3N3CC[C@H]2C3)n1 [Example 185] |  |  | B (EC1.5 1-25 μM) | ≥ 150 | 
Cc1nc(NC(=O)N2c3nc(-c4cccc(Cl)c4)ccc3N3CC[C@H]2C3)sc1C [Example 102] |  |  | A (EC1.5<1 μM) | ≥ 150 | 
CN(C)c1cccc(-c2ccc3c(n2)N(C(=O)Nc2ccccn2)[C@H]2CCCN3C2)c1 [Example 386] | B (EC1.5 1-25 μM) | ≥ 150 |  |  | 
O=C(NCCCCn1ccnc1)N1c2nc(-c3cccc(C(F)(F)F)c3)ccc2N2CC[C@H]1C2 [Example 689] |  |  |  | ≥ 150 | B (EC1.5 1-25 μM)
CS(=O)(=O)c1cccc(-c2ccc3c(n2)N(C(=O)Nc2cc(-c4cnco4)ccn2)[C@H]2CCN3C2)c1 [Example 723] |  |  |  | ≥ 150 | A (EC1.5<1 μM)

SMILES | Tryp AVG EC1.5 (μM) [1] | Emax (Trp peptide substrate) [%] | Tryp AVG EC1.5 (μM) [2] | Emax (Trp mass spectrometry assay) [%] | Tryp AVG EC1.5 (μM) [3]
COc1cncc(NC(=O)N2c3nc(-c4cccc(C#N)c4)ccc3N3CC[C@H]2C3)n1 [Example 190] |  |  | B (EC1.5 1-25 μM) | ≥ 150 | 
O=C(Nc1cccc(-c2cnco2)c1)N1c2nc(-c3cncc(Cl)c3)ccc2N2CCC1CC2 [Example 575] | A (EC1.5<1 μM) | ≥ 150 |  |  | 
CC(C)(C)OC(=O)N1CCCN(c2ccc3c(n2)N(C(=O)Nc2ccncn2)[C@H]2CCCN3C2)CC1 [Example 382] | C (EC1.5>25 μM) | < 150 |  |  | 
O=C(Nc1ncccn1)N1c2nc(N3CCCC(C(F)(F)F)C3)ccc2N2CCC[C@H]1C2 (some centres unmarked) [Example 292] | A (EC1.5<1 μM) | ≥ 150 |  |  | 
O=C(Nc1ccccn1)N1c2nc(-c3cccc(C(F)(F)F)c3)ccc2N2CC[C@H]1C2 [816 (7)] |  |  |  | ≥ 150 | A (EC1.5<1 μM)
O=C(Nc1ccccn1)N1c2nc(-c3ccc(Cl)c(Cl)c3)ccc2N2CC[C@H]1C2 [Example 332] | A (EC1.5<1 μM) | ≥ 150 |  |  | 
COc1nccc(NC(=O)N2c3nc(-c4cccc(F)c4)ccc3N3CC[C@H]2C3)n1 [Example 60] |  |  |  | ≥ 150 | 
O=C(Nc1cc(-c2cnco2)ccn1)N1c2nc(-c3cncc(F)c3)ccc2N2CC[C@H]1C2 [Example 727] |  |  |  | ≥ 150 | A (EC1.5<1 μM)
O=C(Nc1cccc(-c2ccccn2)c1)N1c2nc(-c3cccc(C(F)(F)F)c3)ccc2N2CC[C@H]1C2 [Example 667] |  |  |  | ≥ 150 | A (EC1.5<1 μM)
O=C(Nc1ccccn1)N1c2nc(-c3cccc(C(F)(F)F)c3)ccc2N2CC(O)C1C2 (centres unmarked) [Example 85] |  |  |  | ≥ 150 | 
CC(C)(C)OC(=O)NCc1cnnn1-c1cccc(NC(=O)N2c3nc(-c4cccc(C(F)(F)F)c4)ccc3N3CC[C@H]2C3)c1 [Example 638] |  |  |  | ≥ 150 | A (EC1.5<1 μM)
O=C(NCc1ncc(-c2cccc(NC(=O)N3c4nc(-c5cccc(C(F)(F)F)c5)ccc4N4CC[C@H]3C4)c2)o1)OCc1ccccc1 [Example 706] |  |  |  | ≥ 150 | A (EC1.5<1 μM)
O=C(Nc1ccccn1)N1c2nc(-c3ccccc3C(F)(F)F)ccc2N2CC[C@H]1C2 [Example 137] |  |  | C (EC1.5>25 μM) | < 150 | 
Cc1ccc2ncccc2c1NC(=O)N1c2nc(-c3cccc(C(F)(F)F)c3)ccc2N2CC[C@H]1C2 [Example 84] |  |  |  | < 150 | 
COc1cc(NC(=O)N2c3nc(-c4cccc(N5CCC(F)(F)C5)c4)ccc3N3CC[C@H]2C3)ncn1 [Example 256] | B (EC1.5 1-25 μM) | ≥ 150 |  |  | 
COc1cc(NC(=O)N2c3nc(-c4cncc(Cl)c4)ccc3N3CCC2CC3)nc(OC)n1 [Example 553] | B (EC1.5 1-25 μM) | ≥ 150 |  |  | 
O=C(Nc1ccncn1)N1c2nc(-c3cncc(F)c3)ccc2N2CCC1CC2 [Example 573] | C (EC1.5>25 μM) | < 150 |  |  | 
COc1cc(NC(=O)N2c3nc(-c4cccc(Cl)c4)ccc3N3C[C@@H](O)[C@H]2C3)nc(OC)n1 [Example 680] |  |  |  | ≥ 150 | B (EC1.5 1-25 μM)
COc1cc(NC(=O)N2c3nc(-c4cccc(OC(F)(F)F)c4)ccc3N3CC[C@H]2C3)ncn1 [Example 135] |  |  | A (EC1.5<1 μM) | ≥ 150 | 
O=C(Nc1ccccn1)N1c2nc(-c3cncc(C(F)(F)F)c3)ccc2N2CCC[C@H]1C2 [Example 369] | A (EC1.5<1 μM) | ≥ 150 |  |  | 
NCC#Cc1ccc(NC(=O)N2c3nc(-c4cccc(C(F)(F)F)c4)ccc3N3CC[C@H]2C3)cc1-c1cnco1 [Example 766] |  |  |  | ≥ 150 | A (EC1.5<1 μM)
